# According to patent publication US4681879A, “11-substituted 5H,11H-pyrrolo[2,1-c][1,4]benzoxazepines as antipsychotic and analgesic agents” (Hoechst-Roussel Pharmaceuticals Inc., priority 1985, dated 1987):
# Structures can show the parent of a compound that is named as a salt.
# Assays:
# [1] = test system: 2-phenyl-1,4-benzoquinone-induced writhing; assay: Analgesic activity, 2-phenyl-1,4-benzoquinone-induced writhing test in mice; type: in vivo; settings: Mus musculus, sc; read-out: ANALGESIC ACTIVITY (Phenylquinone Writhing) ED50
# Description: Compounds of the present invention are useful as analgesic agents due to their ability to alleviate pain in mammals. […] Exptl. Biol. Med., 95, 729 (1957)].
# [2] = test system: apomorphine climbing; assay: Antipsychotic activity, climbing mice assay (apomorphine); type: in vivo, mice (CK-1 male); settings: Mus musculus; ip, 30 minutes prior to apomorphine 1.5 mg/kg sc
# Protocol: Antipsychotic activity is determined in the climbing mice assay by methods similar to those described by P. Protais, et al., Psychopharmacol., 50, 1 (1976) and B. Costall, Eur. J. Pharmacol., 50, 39 (1978).
# The subject CK-1 male mice (23-27 grams) are group-housed under standard laboratory conditions. The mice are individually placed in wire mesh stick cages (4"×4" by 10") and are allowed one hour for adaptation and exploration of the new environment. Then apomorphine is injected subcutaneously at 1.5 mg/kg, a dose causing climbing in all subjects for 30 minutes. Compounds to be tested for antipsychotic activity are injected intraperitoneally 30 minutes prior to the apomorphine challenge at a screening dose of 10 mg/kg.
# For evaluation of climbing, 3 readings are taken at 10, 20 and 30 minutes after apomorphine administration according to the following scale: […]
# ______________________________________
# 4 paws on bottom (no climbing)
# 2 paws on the wall (rearing)
# 4 paws on the wall (full climb)
# Mice consistently climbing before the injection of apomorphine are discarded.
# With full-developed apomorphine climbing, the animals are hanging onto the cage walls, rather motionless, over longer periods of time. By contrast, climbs due to mere motor stimulation usually last only a few seconds.
# The climbing scores are individually totaled (maximum score: 6 per mouse over 3 readings) and the total score of the control group (vehicle intraperitoneally-apomorphine subcutaneously) is seet to 100%. ED50 values with 95% confidence limits, calculated by a linear regression analysis of some of the compounds of this invention are presented in Table 1.
smiles,measurement,setting,value
"O=C(O)C(=O)O.O=c1[nH]c2ccccc2n1CCN1CCC(C2Oc3ccccc3Cn3cccc32)CC1 (stereo not drawn) [11-{1-[2-(1,3-Dihydro-2-oxo-2H-benzimidazol-1-yl)ethyl]piperidin-4-yl}-5H,11H-pyrrolo[2,1-c][1,4]benzoxazepine oxalate]",ED50,[1],0.9 mg/kg
same,ED50,[2],3.2 mg/kg
"c1ccc(CCCN2CCC(C3Oc4ccccc4Cn4cccc43)CC2)cc1 (stereo not drawn) [11-{1-[3-(Phenyl)propyl]piperidin-4-yl}-5H,11H-pyrrolo[2,1-c][1,4[benzoxazepine oxalate]",ED50,[2],2 mg/kg
"Oc1ccc(CCN2CCC(C3Oc4ccccc4Cn4cccc43)CC2)cc1 (stereo not drawn) [11-{1-[2-(4-Hydroxyphenyl)ethyl]piperidin-4-yl}-5H,11H-pyrrolo[2,1-c][1,4]benzoxazepine]",ED50,[2],0.3 mg/kg
"c1ccc(OCCCN2CCC(C3Oc4ccccc4Cn4cccc43)CC2)cc1 (stereo not drawn) [11-{1-[3-(Phenoxy)propyl]piperidin-4-yl}-5H,11H-pyrrolo[2,1-c][1,4]benzoxazepine]",ED50,[1],4.2 mg/kg
same,ED50,[2],1.2 mg/kg
"O=[N+]([O-])c1ccc(CCN2CCC(C3Oc4ccccc4Cn4cccc43)CC2)cc1 (stereo not drawn) [11-{1-[2-(4-Nitrophenylethyl)]piperidin-4-yl}-5H,11H-pyrrolo[2,1-c][1,4]benzoxazepine]",ED50,[1],4.1 mg/kg
same,ED50,[2],3.5 mg/kg
"CCCCN1CCC(C2Oc3ccccc3Cn3cccc32)CC1 (stereo not drawn) [11-[(1-Butyl)piperidin-4-yl]-5H,11H-pyrrolo[2,1-c][1,4]benzoxazepine]",ED50,[1],0.4 mg/kg
same,ED50,[2],3.8 mg/kg
"Cc1[nH]c2ccccc2c1CCCN1CCC(C2Oc3ccccc3Cn3cccc32)CC1.O=C(O)C(=O)O (stereo not drawn) [11-{1-[3-(2-Methylindol-3-yl)propyl]piperidin-4-yl}-5H,11H-pyrrolo[2,1-c][1,4]benzoxazepine oxalate]",ED50,[2],2.3 mg/kg
"O=C(CCN1CCC(C2Oc3ccccc3Cn3cccc32)CC1)c1ccccc1.O=C(O)C(=O)O (stereo not drawn) [1-Phenyl-3-[4-[5H,11H-pyrrolo[2,1-c][1,4]benzoxazepin-11-yl]-1-piperidinyl]-1-propanone oxalate]",ED50,[1],1.6 mg/kg
same,ED50,[2],1.6 mg/kg
"COc1ccc(CCN2CCC(C3Oc4ccccc4Cn4cccc43)CC2)cc1.O=C(O)C(=O)O (stereo not drawn) [11-{1-[2-(4-Methoxyphenyl)ethyl]piperidin-4-yl}-5H,11H-pyrrolo[2,1-c][1,4]benzoxazepine oxalate]",ED50,[1],0.3 mg/kg
same,ED50,[2],0.3 mg/kg
"O=C(O)C(=O)O.c1ccc(CCN2CCC(C3Oc4ccccc4Cn4cccc43)CC2)cc1 (stereo not drawn) [11-{1-[2-(Phenyl)ethyl]piperidin-4-yl}-5H,11H-pyrrolo[2,1-c][1,4]benzoxazepine oxalate]",ED50,[2],3.1 mg/kg
"Clc1ccc(CCN2CCC(C3Oc4ccccc4Cn4cccc43)CC2)cc1 (stereo not drawn) [11-{1-[2-(4-Chlorophenylethyl)]piperidin-4-yl}-5H,11H-pyrrolo[2,1-c][1,4]benzoxazepine]",ED50,[2],2.1 mg/kg
"CN(C)c1ccc(CCN2CCC(C3Oc4ccccc4Cn4cccc43)CC2)cc1 (stereo not drawn) [11-{1-[2-(4-Dimethylaminophenylethyl)]piperidin-4-yl}-5H,11H-pyrrolo[2,1-c][1,4]benzoxazepine]",ED50,[1],0.4 mg/kg
same,ED50,[2],1.2 mg/kg
"c1csc(CCN2CCC(C3Oc4ccccc4Cn4cccc43)CC2)c1 (stereo not drawn) [11-{1-[2-(2-Thienyl)ethyl]piperidin-4-yl}-5H,11H-pyrrolo[2,1-c][1,4benzoxazepine]",ED50,[2],1.8 mg/kg
"CCOc1ccc(CCN2CCC(C3Oc4ccccc4Cn4cccc43)CC2)cc1 (stereo not drawn) [11-{1-[2-(4-Ethoxyphenylethyl)]piperidin-4-yl}-5H,11H-pyrrolo[2,1-c][1,4]benzoxaxepine]",ED50,[1],1.9 mg/kg
same,ED50,[2],1.3 mg/kg
"COc1cccc(CCN2CCC(C3Oc4ccccc4Cn4cccc43)CC2)c1OC.O=C(O)/C=C/C(=O)O (stereo not drawn) [11-{1-[2-(2,3-Dimethoxyphenyl)ethyl]piperidin-4-yl}-5H,11H-pyrrolo[2,1-c][1,4]benzoxazepine fumarate]",ED50,[2],3 mg/kg
"COc1ccc(CCN2CCC(C3Oc4ccccc4Cn4cccc43)CC2)cc1OC (stereo not drawn) [11-{1-[2-(3,4-Dimethoxyphenyl)ethyl]piperidin-4-yl}-5H,11H-pyrrolo[2,1-c][1,4]benzoxazepine]",ED50,[1],0.1 mg/kg
same,ED50,[2],0.3 mg/kg
"Fc1ccc2c(CCCN3CCC(C4Oc5ccccc5Cn5cccc54)CC3)noc2c1.O=C(O)C(=O)O (stereo not drawn) [11-{1-[3-(6-Fluoro-1,2-benzisoxazol-3-yl)propyl]piperidin-4-yl}-5H,11H-pyrrolo[2,1-c][1,4]benzoxazepine oxalate]",ED50,[1],5.1 mg/kg
same,ED50,[2],2.1 mg/kg
"Cc1ccc(CCN2CCC(C3Oc4ccccc4Cn4cccc43)CC2)cc1 (stereo not drawn) [11-{1-[2-(4-Methylphenyl)ethyl]piperidin-4-yl}-5H,11H-pyrrolo[2,1-c][1,4]benzoxazepine]",ED50,[2],1.2 mg/kg
"O=C(CCN1CCC(C2Oc3ccccc3Cn3cccc32)CC1)c1ccc(Cl)cc1 (stereo not drawn) [1-(4-Chlorophenyl)-3-[4-]5H,11H-pyrrolo[2,1-c][1,4]benzoxazepin-11-yl]-1-piperidinyl]-1-propanone]",ED50,[2],5.5 mg/kg
"O=C(O)C(=O)O.O=c1[nH]c2ccccc2n1CCCN1CCC(C2Oc3ccccc3Cn3cccc32)CC1 (stereo not drawn) [11-{1-[3-(1,3-Dihydro-2-oxo-2H-benzimidazol-1-yl)propyl]piperidin-4-yl}-5H,11H-pyrrolo[2,1-c][1,4]benzoxazepine oxalate]",ED50,[1],0.3 mg/kg
same,ED50,[2],0.7 mg/kg
"COc1cccc(CCN2CCC(C3Oc4ccccc4Cn4cccc43)CC2)c1 (stereo not drawn) [11-{1-[2-(3-Methoxyphenyl)ethyl]piperidin-4-yl}-5H,11H-pyrrolo[2,1-c][1,4]benzoxazepine]",ED50,[2],0.9 mg/kg
"Fc1ccc(CCN2CCC(C3Oc4ccccc4Cn4cccc43)CC2)cc1.O=C(O)C(=O)O (stereo not drawn) [11-{1-[2-(4-Fluorophenyl)ethyl]piperidin-4-yl}-5H,11H-pyrrolo[2,1-c][1,4]benzoxazepine oxalate]",ED50,[2],3.1 mg/kg
